What was measured:
Japanese bulrush [1] = experiment: Test Example 2: herbicidal activity, application during weed generation under submerged conditions (Table 17, symbol B); format: in vivo, Japanese bulrush (Schoenoplectus juncoides); conditions: AAH 320 g/ha; application during weed generation, submerged conditions
Method in brief: (§1)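 3-wk visual-criteria score after one water-surface dose. Emulsion formulation, water-diluted to set rate; applied at 1–2 leaf stage; alluvial soil, 4 cm standing water; seeds co-sown; greenhouse 25–30° C.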

late watergrass [2] = experiment: Test Example 2: herbicidal activity, application during weed generation under submerged conditions (Table 17, symbol A); format: in vivo, late watergrass (Echinochloa oryzicola); conditions: AAH 320 g/ha; application during weed generation, submerged conditions
Method in brief: as §1

redroot pigweed [3] = experiment: Test Example 4: herbicidal effect by soil treatment (Table 19, symbol N); format: in vivo, redroot pigweed (Amaranthus retroflexus); conditions: amount of applied herbicide 320 g/ha
Method in brief: (§2)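 Soil-surface application: an emulsion agent diluted with water to the predetermined dose is sprayed uniformly over seeds lying under roughly 1.5 cm of sterilized diluvial soil. Boxes stay in a greenhouse at 25° C. to 30° C. Three weeks later, each species is graded on previously defined criteria.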

barnyard grass [4] = experiment: Test Example 3: herbicidal effect by foliage application, Wagner pot (Table 18, symbol H); format: in vivo, barnyard grass (Echinochloa crus-galli)
Method in brief: (§3)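 Plants were sown in alluvial soil held under 0.1–0.5 cm standing water and grown 14 days in a greenhouse at 25–30 °C. An emulsifiable formulation, water-diluted to the set dose, was then sprayed onto the foliage, and effects were scored three weeks later using previously defined criteria.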

oval-leafed pondweed [5] = experiment: Test Example 2: herbicidal activity, application during weed generation under submerged conditions (Table 17, symbol C); format: in vivo, oval-leafed pondweed (Monochoria vaginalis); conditions: AAH 320 g/ha; application during weed generation, submerged conditions
Method in brief: as §1

blackgrass [6] = experiment: Test Example 4: herbicidal effect by soil treatment (Table 19, symbol J); format: in vivo, blackgrass (Alopecurus myosuroides); conditions: amount of applied herbicide 320 g/ha
Method in brief: as §2

late watergrass [7] = experiment: Test Example 1: herbicidal activity, application before weed generation under submerged conditions (Table 16, symbol A); format: in vivo, late watergrass (Echinochloa oryzicola)
Method in brief: (§4)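 Submerged Wagner pots (alluvial soil, 4 cm water) sown with weed seeds and planted with 2.5-leaf rice seedlings; emulsifiable concentrate diluted in water applied to water surface on sowing day. Held in greenhouse at 25-30 °C; injury scored 0-5 by herbicidal rate after three weeks.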

persian speedwell [8] = experiment: Test Example 4: herbicidal effect by soil treatment (Table 19, symbol R); format: in vivo, Persian speedwell (Veronica persica); conditions: amount of applied herbicide 320 g/ha
Method in brief: as §2

windgrass [9] = experiment: Test Example 4: herbicidal effect by soil treatment (Table 19, symbol L); format: in vivo, windgrass (Apera spica-venti); conditions: amount of applied herbicide 320 g/ha
Method in brief: as §2

southern crabgrass [10] = experiment: Test Example 4: herbicidal effect by soil treatment (Table 19, symbol F); format: in vivo, southern crabgrass (Digitaria ciliaris); conditions: amount of applied herbicide 320 g/ha
Method in brief: as §2

green foxtail [11] = experiment: Test Example 4: herbicidal effect by soil treatment (Table 19, symbol G); format: in vivo, green foxtail (Setaria viridis); conditions: amount of applied herbicide 320 g/ha
Method in brief: as §2

Chinese sprangletop = experiment: Test Example 3: herbicidal effect by foliage application, Wagner pot (Table 18, symbol D); format: in vivo, chinese sprangletop (Leptochloa chinensis)
Method in brief: as §3

rice flat sedge = experiment: Test Example 3: herbicidal effect by foliage application, Wagner pot (Table 18, symbol E); format: in vivo, rice flat sedge (Cyperus iria)
Method in brief: as §3

velvetleaf [12] = experiment: Test Example 4: herbicidal effect by soil treatment (Table 19, symbol M); format: in vivo, velvetleaf (Abutilon theophrasti); conditions: amount of applied herbicide 320 g/ha
Method in brief: as §2

barnyard grass [13] = experiment: Test Example 4: herbicidal effect by soil treatment (Table 19, symbol H); format: in vivo, barnyard grass (Echinochloa crus-galli); conditions: amount of applied herbicide 320 g/ha
Method in brief: as §2

wild oat [14] = experiment: Test Example 4: herbicidal effect by soil treatment (Table 19, symbol I); format: in vivo, wild oat (Avena fatua); conditions: amount of applied herbicide 320 g/ha
Method in brief: as §2

lambsquarters [15] = experiment: Test Example 4: herbicidal effect by soil treatment (Table 19, symbol O); format: in vivo, lambsquarters (Chenopodium album); conditions: amount of applied herbicide 320 g/ha
Method in brief: as §2

chickweed [16] = experiment: Test Example 4: herbicidal effect by soil treatment (Table 19, symbol P); format: in vivo, common chickweed (Stellaria media); conditions: amount of applied herbicide 320 g/ha
Method in brief: as §2

oval-leafed pondweed [17] = experiment: Test Example 1: herbicidal activity, application before weed generation under submerged conditions (Table 16, symbol C); format: in vivo, oval-leafed pondweed (Monochoria vaginalis)
Method in brief: as §4

Japanese bulrush [18] = experiment: Test Example 1: herbicidal activity, application before weed generation under submerged conditions (Table 16, symbol B); format: in vivo, Japanese bulrush (Schoenoplectus juncoides)
Method in brief: as §4

Italian ryegrass [19] = experiment: Test Example 4: herbicidal effect by soil treatment (Table 19, symbol K); format: in vivo, Italian ryegrass (Lolium multiflorum); conditions: amount of applied herbicide 320 g/ha
Method in brief: as §2

barnyard grass [20] = experiment: Test Example 5: herbicidal effect by foliage application, plastic box (Table 20, symbol H); format: in vivo, barnyard grass (Echinochloa crus-galli); conditions: amount of applied herbicide 320 g/ha; foliage application after 14-day growth; evaluated three weeks after application
Method in brief: (§5)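 Sow seeds spot-wise in sterilized diluvial soil; cover with ~1.5 cm soil. Grow 14 days in greenhouse, 25° C. to 30° C. Spray foliage with emulsion diluted to predetermined amount. Rate effect after 3 weeks.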

wild oat [21] = experiment: Test Example 5: herbicidal effect by foliage application, plastic box (Table 20, symbol I); format: in vivo, wild oat (Avena fatua); conditions: amount of applied herbicide 320 g/ha; foliage application after 14-day growth; evaluated three weeks after application
Method in brief: as §5

blackgrass [22] = experiment: Test Example 5: herbicidal effect by foliage application, plastic box (Table 20, symbol J); format: in vivo, blackgrass (Alopecurus myosuroides); conditions: amount of applied herbicide 320 g/ha; foliage application after 14-day growth; evaluated three weeks after application
Method in brief: as §5

windgrass [23] = experiment: Test Example 5: herbicidal effect by foliage application, plastic box (Table 20, symbol L); format: in vivo, windgrass (Apera spica-venti); conditions: amount of applied herbicide 320 g/ha; foliage application after 14-day growth; evaluated three weeks after application
Method in brief: as §5

chickweed [24] = experiment: Test Example 5: herbicidal effect by foliage application, plastic box (Table 20, symbol P); format: in vivo, common chickweed (Stellaria media); conditions: amount of applied herbicide 320 g/ha; foliage application after 14-day growth; evaluated three weeks after application
Method in brief: as §5

persian speedwell [25] = experiment: Test Example 5: herbicidal effect by foliage application, plastic box (Table 20, symbol R); format: in vivo, Persian speedwell (Veronica persica); conditions: amount of applied herbicide 320 g/ha; foliage application after 14-day growth; evaluated three weeks after application
Method in brief: as §5

southern crabgrass [26] = experiment: Test Example 5: herbicidal effect by foliage application, plastic box (Table 20, symbol F); format: in vivo, southern crabgrass (Digitaria ciliaris); conditions: amount of applied herbicide 320 g/ha; foliage application after 14-day growth; evaluated three weeks after application
Method in brief: as §5

velvetleaf [27] = experiment: Test Example 5: herbicidal effect by foliage application, plastic box (Table 20, symbol M); format: in vivo, velvetleaf (Abutilon theophrasti); conditions: amount of applied herbicide 320 g/ha; foliage application after 14-day growth; evaluated three weeks after application
Method in brief: as §5

green foxtail [28] = experiment: Test Example 5: herbicidal effect by foliage application, plastic box (Table 20, symbol G); format: in vivo, green foxtail (Setaria viridis); conditions: amount of applied herbicide 320 g/ha; foliage application after 14-day growth; evaluated three weeks after application
Method in brief: as §5

Italian ryegrass [29] = experiment: Test Example 5: herbicidal effect by foliage application, plastic box (Table 20, symbol K); format: in vivo, Italian ryegrass (Lolium multiflorum); conditions: amount of applied herbicide 320 g/ha; foliage application after 14-day growth; evaluated three weeks after application
Method in brief: as §5

lambsquarters [30] = experiment: Test Example 5: herbicidal effect by foliage application, plastic box (Table 20, symbol O); format: in vivo, lambsquarters (Chenopodium album); conditions: amount of applied herbicide 320 g/ha; foliage application after 14-day growth; evaluated three weeks after application
Method in brief: as §5

redroot pigweed [31] = experiment: Test Example 5: herbicidal effect by foliage application, plastic box (Table 20, symbol N); format: in vivo, redroot pigweed (Amaranthus retroflexus); conditions: amount of applied herbicide 320 g/ha; foliage application after 14-day growth; evaluated three weeks after application
Method in brief: as §5

[32] = amount of applied herbicide 320 g/ha

Cc1nn(C)c(=O)c(-c2c(-c3ccc(Cl)c(F)c3)sc3ccc(F)cc23)c1O [2-350]
herbicidal effect rating, B: Japanese bulrush (Japanese bulrush [1]): 2 (Herbicidal rate of 20% or more and less than 40%)
herbicidal effect rating, A: late watergrass (late watergrass [2]): 0 (Herbicidal rate of 5% or less (almost no effect))
herbicidal effect on N: redroot pigweed (redroot pigweed [3]): 5 (Herbicidal rate of 90% or more (almost completely withered))
herbicidal effect on H: barnyard grass (barnyard grass [4]; [32]): 5 (Herbicidal rate of 90% or more (almost completely withered))
herbicidal effect rating, C: oval-leafed pondweed (oval-leafed pondweed [5]): 0 (Herbicidal rate of 5% or less (almost no effect))
herbicidal effect on J: blackgrass (blackgrass [6]): 0 (Herbicidal rate of 5% or less (almost no effect))
Herbicidal effect on A: late watergrass (grade 0-5) (late watergrass [7]; 320 g/ha applied herbicide): 3 (Herbicidal rate of 40% or more and less than 70%)
herbicidal effect on R: persian speedwell (persian speedwell [8]): 5 (Herbicidal rate of 90% or more (almost completely withered))
herbicidal effect on L: windgrass (windgrass [9]): 4 (Herbicidal rate of 70% or more and less than 90%)
herbicidal effect on F: southern crabgrass (southern crabgrass [10]): 4 (Herbicidal rate of 70% or more and less than 90%)
herbicidal effect on G: green foxtail (green foxtail [11]): 5 (Herbicidal rate of 90% or more (almost completely withered))
herbicidal effect on D: Chinese sprangletop (Chinese sprangletop; [32]): 5 (Herbicidal rate of 90% or more (almost completely withered))
herbicidal effect on E: rice flat sedge (rice flat sedge; [32]): 5 (Herbicidal rate of 90% or more (almost completely withered))
herbicidal effect on M: velvetleaf (velvetleaf [12]): 3 (Herbicidal rate of 40% or more and less than 70%)
herbicidal effect on H: barnyard grass (barnyard grass [13]): 5 (Herbicidal rate of 90% or more (almost completely withered))
herbicidal effect on I: wild oat (wild oat [14]): 0 (Herbicidal rate of 5% or less (almost no effect))
herbicidal effect on O: lambsquarters (lambsquarters [15]): 4 (Herbicidal rate of 70% or more and less than 90%)
herbicidal effect on P: chickweed (chickweed [16]): 3 (Herbicidal rate of 40% or more and less than 70%)
Herbicidal effect on C: oval-leafed pondweed (grade 0-5) (oval-leafed pondweed [17]; 320 g/ha applied herbicide): 0 (Herbicidal rate of 5% or less (almost no effect))
Herbicidal effect on B: Japanese bulrush (grade 0-5) (Japanese bulrush [18]; 320 g/ha applied herbicide): 0 (Herbicidal rate of 5% or less (almost no effect))
herbicidal effect on K: Italian ryegrass (Italian ryegrass [19]): 4 (Herbicidal rate of 70% or more and less than 90%)

Cc1nn(C)c(=O)c(-c2c(-c3ccc(OC4CCCCO4)cc3)sc3cc(F)c(F)cc23)c1O (stereo not drawn) [5-024]
herbicidal effect rating, B: Japanese bulrush (Japanese bulrush [1]): 2 (Herbicidal rate of 20% or more and less than 40%)
herbicidal effect rating, A: late watergrass (late watergrass [2]): 0 (Herbicidal rate of 5% or less (almost no effect))
Herbicidal effect by foliage application, H: barnyard grass (barnyard grass [20]): 3 (Herbicidal rate of 40% or more and less than 70%)
Herbicidal effect by foliage application, I: wild oat (wild oat [21]): 0 (Herbicidal rate of 5% or less (almost no effect))
herbicidal effect on barnyard grass (H) (barnyard grass [4]; 320 g/ha): 4 (Herbicidal rate of 70% or more and less than 90%)
herbicidal effect rating, C: oval-leafed pondweed (oval-leafed pondweed [5]): 0 (Herbicidal rate of 5% or less (almost no effect))
Herbicidal effect, A: late watergrass (late watergrass [7]; [32]): 3 (Herbicidal rate of 40% or more and less than 70%)
Herbicidal effect by foliage application, J: blackgrass (blackgrass [22]): 1 (Herbicidal rate of 5% or more and less than 20%)
Herbicidal effect by foliage application, L: windgrass (windgrass [23]): 2 (Herbicidal rate of 20% or more and less than 40%)
Herbicidal effect by foliage application, P: chickweed (chickweed [24]): 5 (Herbicidal rate of 90% or more (almost completely withered))
Herbicidal effect by foliage application, R: persian speedwell (persian speedwell [25]): 5 (Herbicidal rate of 90% or more (almost completely withered))
Herbicidal effect by foliage application, F: southern crabgrass (southern crabgrass [26]): 4 (Herbicidal rate of 70% or more and less than 90%)
herbicidal effect on Chinese sprangletop (D) (Chinese sprangletop; 320 g/ha): 3 (Herbicidal rate of 40% or more and less than 70%)
herbicidal effect on rice flat sedge (E) (rice flat sedge; 320 g/ha): 0 (Herbicidal rate of 5% or less (almost no effect))
Herbicidal effect by foliage application, M: velvetleaf (velvetleaf [27]): 3 (Herbicidal rate of 40% or more and less than 70%)
Herbicidal effect by foliage application, G: green foxtail (green foxtail [28]): 3 (Herbicidal rate of 40% or more and less than 70%)
Herbicidal effect, C: oval-leafed pondweed (oval-leafed pondweed [17]; [32]): 5 (Herbicidal rate of 90% or more (almost completely withered))
Herbicidal effect by foliage application, K: Italian ryegrass (Italian ryegrass [29]): 0 (Herbicidal rate of 5% or less (almost no effect))
Herbicidal effect by foliage application, O: lambsquarters (lambsquarters [30]): 5 (Herbicidal rate of 90% or more (almost completely withered))
Herbicidal effect by foliage application, N: redroot pigweed (redroot pigweed [31]): 5 (Herbicidal rate of 90% or more (almost completely withered))
Herbicidal effect, B: Japanese bulrush (Japanese bulrush [18]; [32]): 0 (Herbicidal rate of 5% or less (almost no effect))
